This is an account of results in ChEMBL document CHEMBL5696441 (Nat Chem Biol, 2011).

For assay [1], the target named is T1, Megakaryocyte-associated tyrosine-protein kinase (Homo sapiens) (UniProt P42679).
T1 sequence (whole entry): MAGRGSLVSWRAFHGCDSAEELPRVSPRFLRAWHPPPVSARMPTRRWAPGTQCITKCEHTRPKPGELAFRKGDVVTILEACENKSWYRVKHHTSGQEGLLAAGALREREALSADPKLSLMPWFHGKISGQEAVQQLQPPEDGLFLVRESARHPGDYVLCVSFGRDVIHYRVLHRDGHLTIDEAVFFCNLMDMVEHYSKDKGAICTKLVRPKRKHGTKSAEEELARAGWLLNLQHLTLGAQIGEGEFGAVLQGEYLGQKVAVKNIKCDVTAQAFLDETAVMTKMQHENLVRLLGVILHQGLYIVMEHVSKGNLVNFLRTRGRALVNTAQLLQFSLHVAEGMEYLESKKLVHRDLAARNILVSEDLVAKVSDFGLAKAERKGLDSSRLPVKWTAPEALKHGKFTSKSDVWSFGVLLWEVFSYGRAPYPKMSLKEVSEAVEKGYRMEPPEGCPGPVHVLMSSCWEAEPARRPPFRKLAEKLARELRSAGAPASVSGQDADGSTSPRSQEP
Kind of assay: Inhibition of CTK (unknown origin) assessed as remaining activity at 1 uM by Kinome scan method relative to control.

Assay [2] addresses T2, Serine/threonine-protein kinase 17A (Homo sapiens) (UniProt Q9UEE5).
T2 sequence (whole entry): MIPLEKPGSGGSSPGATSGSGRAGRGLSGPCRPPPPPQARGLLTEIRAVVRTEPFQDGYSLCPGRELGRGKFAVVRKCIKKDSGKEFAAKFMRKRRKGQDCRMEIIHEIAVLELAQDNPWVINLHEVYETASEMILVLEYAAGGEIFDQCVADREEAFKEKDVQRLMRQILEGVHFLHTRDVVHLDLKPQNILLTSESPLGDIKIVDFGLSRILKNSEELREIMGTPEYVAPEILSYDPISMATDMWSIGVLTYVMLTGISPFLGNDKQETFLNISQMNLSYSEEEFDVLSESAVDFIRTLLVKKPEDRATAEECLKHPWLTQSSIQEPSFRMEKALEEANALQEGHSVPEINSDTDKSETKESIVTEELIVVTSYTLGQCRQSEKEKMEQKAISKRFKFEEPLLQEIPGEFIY
Briefly: Inhibition of DRAK1 (unknown origin) assessed as remaining activity at 1 uM by Kinome scan method relative to control.

Assay [3] has as its target Dual specificity tyrosine-phosphorylation-regulated kinase 2 (Homo sapiens) (UniProt Q92630). Briefly: Inhibition of DYRK2 (unknown origin) assessed as remaining activity at 1 uM by Kinome scan method relative to control.
The target of assay [4] is Ephrin type-B receptor 6 (Homo sapiens) (UniProt O15197). Kind of assay: Inhibition of EPHB6 (unknown origin) assessed as remaining activity at 1 uM by Kinome scan method relative to control.
In assay [5] the target is Insulin receptor (Homo sapiens) (UniProt P06213). Kind of assay: Inhibition of INSR (unknown origin) assessed as remaining activity at 1 uM by Kinome scan method relative to control.
In assay [6] the target is Tyrosine-protein kinase Lyn (Homo sapiens) (UniProt P07948). Briefly: Inhibition of LYN (unknown origin) assessed as remaining activity at 1 uM by Kinome scan method relative to control.
In assay [7] the target is T3, MAP/microtubule affinity-regulating kinase 4 (Homo sapiens) (UniProt Q96L34).
T3 sequence (whole entry): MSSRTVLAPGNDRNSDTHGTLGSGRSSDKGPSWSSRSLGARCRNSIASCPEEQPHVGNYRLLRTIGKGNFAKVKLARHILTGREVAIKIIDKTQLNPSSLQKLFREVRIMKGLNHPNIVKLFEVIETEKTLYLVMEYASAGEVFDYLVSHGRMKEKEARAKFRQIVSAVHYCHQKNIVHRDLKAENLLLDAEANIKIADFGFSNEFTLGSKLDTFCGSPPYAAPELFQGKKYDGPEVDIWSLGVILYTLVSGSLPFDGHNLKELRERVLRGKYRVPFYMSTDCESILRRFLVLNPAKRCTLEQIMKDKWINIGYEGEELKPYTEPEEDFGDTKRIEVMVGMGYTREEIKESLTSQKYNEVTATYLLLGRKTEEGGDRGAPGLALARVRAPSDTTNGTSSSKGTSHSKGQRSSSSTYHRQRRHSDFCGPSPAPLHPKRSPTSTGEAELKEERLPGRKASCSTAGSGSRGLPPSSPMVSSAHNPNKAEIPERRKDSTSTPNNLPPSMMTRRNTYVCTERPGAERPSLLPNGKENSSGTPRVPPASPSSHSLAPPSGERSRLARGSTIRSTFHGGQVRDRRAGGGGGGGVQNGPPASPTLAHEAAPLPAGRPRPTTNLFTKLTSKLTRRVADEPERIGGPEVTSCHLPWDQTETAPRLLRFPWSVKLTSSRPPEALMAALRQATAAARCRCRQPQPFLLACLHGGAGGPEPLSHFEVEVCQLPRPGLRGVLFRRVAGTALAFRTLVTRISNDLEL
Kind of assay: Inhibition of MARK4 (unknown origin) assessed as remaining activity at 1 uM by Kinome scan method relative to control.

For assay [8], the target named is Microtubule-associated serine/threonine-protein kinase 1 (Homo sapiens) (UniProt Q9Y2H9). Kind of assay: Inhibition of MAST1 (unknown origin) assessed as remaining activity at 1 uM by Kinome scan method relative to control.
Assay [9] deals with Dual specificity mitogen-activated protein kinase kinase 2 (Homo sapiens) (UniProt P36507). Briefly: Inhibition of MEK2 (unknown origin) assessed as remaining activity at 1 uM by Kinome scan method relative to control.
Assay [10] concerns the target Macrophage-stimulating protein receptor (Homo sapiens) (UniProt Q04912). Kind of assay: Inhibition of MST1R (unknown origin) assessed as remaining activity at 1 uM by Kinome scan method relative to control.
Assay [11] has as its target SRSF protein kinase 2 (Homo sapiens) (UniProt P78362). Kind of assay: Inhibition of SRPK2 (unknown origin) assessed as remaining activity at 1 uM by Kinome scan method relative to control.

Ephrin type-B receptor 6 (Homo sapiens), sequence (O15197 whole entry): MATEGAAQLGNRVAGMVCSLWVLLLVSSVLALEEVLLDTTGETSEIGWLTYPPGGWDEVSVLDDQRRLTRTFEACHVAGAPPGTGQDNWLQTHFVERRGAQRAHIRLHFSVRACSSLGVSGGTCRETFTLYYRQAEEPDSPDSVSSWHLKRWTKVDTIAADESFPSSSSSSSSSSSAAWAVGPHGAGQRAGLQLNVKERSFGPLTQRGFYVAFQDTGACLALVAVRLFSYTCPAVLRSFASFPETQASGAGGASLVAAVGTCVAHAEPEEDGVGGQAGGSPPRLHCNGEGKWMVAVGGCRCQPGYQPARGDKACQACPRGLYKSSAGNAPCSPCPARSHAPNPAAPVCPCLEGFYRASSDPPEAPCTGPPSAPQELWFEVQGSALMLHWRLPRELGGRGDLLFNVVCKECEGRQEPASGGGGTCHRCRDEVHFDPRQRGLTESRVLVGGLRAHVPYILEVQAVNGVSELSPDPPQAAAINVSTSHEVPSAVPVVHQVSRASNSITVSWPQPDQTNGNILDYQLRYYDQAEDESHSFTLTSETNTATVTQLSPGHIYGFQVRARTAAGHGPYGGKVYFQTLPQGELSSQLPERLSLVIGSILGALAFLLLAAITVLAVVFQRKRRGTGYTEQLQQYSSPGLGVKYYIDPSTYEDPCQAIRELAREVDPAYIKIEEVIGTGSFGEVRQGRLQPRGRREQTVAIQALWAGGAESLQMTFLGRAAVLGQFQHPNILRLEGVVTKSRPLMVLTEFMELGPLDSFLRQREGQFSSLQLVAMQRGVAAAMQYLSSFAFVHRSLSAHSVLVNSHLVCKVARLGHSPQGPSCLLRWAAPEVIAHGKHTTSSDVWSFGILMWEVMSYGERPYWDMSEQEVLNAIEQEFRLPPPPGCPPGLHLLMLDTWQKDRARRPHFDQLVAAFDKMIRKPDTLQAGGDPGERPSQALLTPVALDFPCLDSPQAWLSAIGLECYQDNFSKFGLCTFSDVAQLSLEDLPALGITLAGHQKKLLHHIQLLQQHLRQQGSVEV
Microtubule-associated serine/threonine-protein kinase 1 (Homo sapiens), sequence (Q9Y2H9 whole entry, looked up): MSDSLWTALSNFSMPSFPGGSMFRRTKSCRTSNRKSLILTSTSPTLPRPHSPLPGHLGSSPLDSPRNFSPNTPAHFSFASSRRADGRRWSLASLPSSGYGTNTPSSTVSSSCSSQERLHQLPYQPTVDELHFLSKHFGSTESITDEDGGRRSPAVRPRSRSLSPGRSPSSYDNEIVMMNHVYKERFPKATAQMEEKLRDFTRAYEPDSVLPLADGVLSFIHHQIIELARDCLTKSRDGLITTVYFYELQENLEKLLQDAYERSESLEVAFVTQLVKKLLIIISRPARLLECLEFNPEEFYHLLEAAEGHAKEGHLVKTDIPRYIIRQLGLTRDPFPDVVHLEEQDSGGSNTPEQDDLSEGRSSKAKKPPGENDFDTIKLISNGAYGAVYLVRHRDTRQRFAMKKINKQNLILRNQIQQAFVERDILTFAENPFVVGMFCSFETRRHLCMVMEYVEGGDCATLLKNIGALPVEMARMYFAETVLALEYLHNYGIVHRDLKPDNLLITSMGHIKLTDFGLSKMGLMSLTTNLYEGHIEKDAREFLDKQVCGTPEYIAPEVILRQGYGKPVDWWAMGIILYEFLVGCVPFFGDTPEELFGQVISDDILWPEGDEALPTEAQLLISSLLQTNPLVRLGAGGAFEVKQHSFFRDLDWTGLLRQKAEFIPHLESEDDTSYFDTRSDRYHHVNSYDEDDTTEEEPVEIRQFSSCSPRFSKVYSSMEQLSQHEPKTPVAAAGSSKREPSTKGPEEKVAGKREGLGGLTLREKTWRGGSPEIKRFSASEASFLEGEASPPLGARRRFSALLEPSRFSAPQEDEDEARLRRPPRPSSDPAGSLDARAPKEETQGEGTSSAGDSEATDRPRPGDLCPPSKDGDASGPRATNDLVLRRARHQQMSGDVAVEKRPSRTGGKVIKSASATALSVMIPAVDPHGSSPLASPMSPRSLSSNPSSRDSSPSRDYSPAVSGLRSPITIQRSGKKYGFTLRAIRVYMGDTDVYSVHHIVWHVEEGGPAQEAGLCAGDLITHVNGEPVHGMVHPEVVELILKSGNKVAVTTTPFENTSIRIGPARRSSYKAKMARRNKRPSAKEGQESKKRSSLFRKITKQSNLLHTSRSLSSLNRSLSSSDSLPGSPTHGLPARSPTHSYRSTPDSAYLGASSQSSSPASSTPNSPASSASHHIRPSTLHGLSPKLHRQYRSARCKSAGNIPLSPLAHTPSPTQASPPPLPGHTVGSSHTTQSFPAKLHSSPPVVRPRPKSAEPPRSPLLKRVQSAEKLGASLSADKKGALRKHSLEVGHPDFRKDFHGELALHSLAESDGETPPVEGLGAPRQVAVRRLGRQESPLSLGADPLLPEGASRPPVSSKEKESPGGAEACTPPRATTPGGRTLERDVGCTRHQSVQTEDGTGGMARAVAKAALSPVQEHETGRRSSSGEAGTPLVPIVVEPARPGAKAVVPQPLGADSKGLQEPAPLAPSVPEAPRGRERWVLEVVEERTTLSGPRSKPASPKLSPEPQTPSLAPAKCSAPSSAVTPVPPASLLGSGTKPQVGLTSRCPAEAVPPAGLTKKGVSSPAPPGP
Tyrosine-protein kinase Lyn (Homo sapiens), sequence (P07948 2-512 limits assumed): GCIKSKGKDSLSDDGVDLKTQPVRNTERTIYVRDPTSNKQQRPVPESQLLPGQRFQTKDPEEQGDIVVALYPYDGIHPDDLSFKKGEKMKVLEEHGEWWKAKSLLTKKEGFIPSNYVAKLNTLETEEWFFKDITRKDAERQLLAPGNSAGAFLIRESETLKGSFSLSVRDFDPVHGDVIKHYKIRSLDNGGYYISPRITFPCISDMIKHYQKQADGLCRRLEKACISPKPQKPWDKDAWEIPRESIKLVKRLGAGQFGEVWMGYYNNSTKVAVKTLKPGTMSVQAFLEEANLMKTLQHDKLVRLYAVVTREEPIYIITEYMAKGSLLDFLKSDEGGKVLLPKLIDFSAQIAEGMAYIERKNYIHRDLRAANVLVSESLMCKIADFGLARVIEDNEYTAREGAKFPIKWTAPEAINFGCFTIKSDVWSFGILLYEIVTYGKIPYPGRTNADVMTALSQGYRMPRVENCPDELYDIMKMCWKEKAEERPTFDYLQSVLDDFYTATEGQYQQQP
Dual specificity mitogen-activated protein kinase kinase 2 (Homo sapiens), sequence (P36507 whole entry): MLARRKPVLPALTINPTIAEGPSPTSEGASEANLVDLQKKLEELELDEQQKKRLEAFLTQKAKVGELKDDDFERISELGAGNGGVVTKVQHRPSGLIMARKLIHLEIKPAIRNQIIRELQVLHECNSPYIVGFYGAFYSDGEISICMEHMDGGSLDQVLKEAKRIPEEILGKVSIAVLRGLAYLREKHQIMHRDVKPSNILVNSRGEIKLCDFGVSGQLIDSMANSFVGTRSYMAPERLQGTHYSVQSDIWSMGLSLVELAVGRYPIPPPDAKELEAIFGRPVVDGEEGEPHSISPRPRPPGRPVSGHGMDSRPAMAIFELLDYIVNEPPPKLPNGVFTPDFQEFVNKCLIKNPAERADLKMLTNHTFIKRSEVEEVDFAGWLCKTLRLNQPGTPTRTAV
Macrophage-stimulating protein receptor (Homo sapiens), sequence (Q04912 25-304 limits assumed): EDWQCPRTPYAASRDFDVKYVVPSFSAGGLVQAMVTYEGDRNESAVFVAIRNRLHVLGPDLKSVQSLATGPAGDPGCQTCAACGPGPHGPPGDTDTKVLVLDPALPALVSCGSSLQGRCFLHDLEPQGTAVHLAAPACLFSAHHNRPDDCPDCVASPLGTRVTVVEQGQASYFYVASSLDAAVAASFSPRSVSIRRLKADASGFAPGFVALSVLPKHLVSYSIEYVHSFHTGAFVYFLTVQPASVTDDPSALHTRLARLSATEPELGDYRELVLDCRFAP
Macrophage-stimulating protein receptor (Homo sapiens), sequence (Q04912 310-1400 limits assumed): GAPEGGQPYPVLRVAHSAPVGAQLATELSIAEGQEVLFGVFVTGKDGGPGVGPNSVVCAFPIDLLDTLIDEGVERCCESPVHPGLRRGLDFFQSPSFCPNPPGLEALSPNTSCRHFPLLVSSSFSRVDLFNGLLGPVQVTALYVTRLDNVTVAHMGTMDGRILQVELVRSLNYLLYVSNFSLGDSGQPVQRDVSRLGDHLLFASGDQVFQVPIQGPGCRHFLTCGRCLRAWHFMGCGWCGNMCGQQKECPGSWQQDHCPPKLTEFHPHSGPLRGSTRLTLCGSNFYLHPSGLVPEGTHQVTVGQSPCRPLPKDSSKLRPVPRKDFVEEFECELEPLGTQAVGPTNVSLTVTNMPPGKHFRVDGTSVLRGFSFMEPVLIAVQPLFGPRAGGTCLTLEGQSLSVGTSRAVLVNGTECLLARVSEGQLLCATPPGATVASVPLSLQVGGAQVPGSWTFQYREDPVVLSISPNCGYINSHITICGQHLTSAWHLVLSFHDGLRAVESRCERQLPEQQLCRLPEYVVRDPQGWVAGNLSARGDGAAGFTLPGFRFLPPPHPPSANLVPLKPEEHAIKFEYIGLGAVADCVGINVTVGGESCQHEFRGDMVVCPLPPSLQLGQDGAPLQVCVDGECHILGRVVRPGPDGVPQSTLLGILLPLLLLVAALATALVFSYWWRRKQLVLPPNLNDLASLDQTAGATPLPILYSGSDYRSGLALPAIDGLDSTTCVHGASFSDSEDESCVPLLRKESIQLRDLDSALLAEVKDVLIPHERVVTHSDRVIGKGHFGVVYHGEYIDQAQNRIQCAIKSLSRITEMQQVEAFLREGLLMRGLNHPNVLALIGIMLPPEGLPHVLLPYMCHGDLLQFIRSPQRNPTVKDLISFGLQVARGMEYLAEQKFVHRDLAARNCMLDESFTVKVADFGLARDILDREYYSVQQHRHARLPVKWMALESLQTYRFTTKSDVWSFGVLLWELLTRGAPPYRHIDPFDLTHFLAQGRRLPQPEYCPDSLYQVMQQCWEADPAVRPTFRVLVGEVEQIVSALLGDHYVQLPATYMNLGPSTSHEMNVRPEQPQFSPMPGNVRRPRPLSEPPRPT

Consider `Nc1ccccc1Nc1ccc2c(c1)CCc1ccccc1C2=O`, for which the Activity in assay [1] was determined as 71%; in [2], 92%; in assay [3] it was 75%; in [4], 99%; in assay [5], 83%; in [6], 99%. For the same molecule, the Activity in assay [7] stood at 90%; in [8] it was 79%; in [9], 88%; in assay [10], 97%; in [11], 79%.
On to `O=C1c2ccc(Nc3ccc(F)cc3F)cc2CCc2ccc(OC[C@H](O)CO)cc21` [Skepinone-L], for which the Activity in assay [1] was found to be 80%; in assay [2] it was 100%; in assay [3] it was 86%; in assay [4] it was 91%; in assay [5] it was 99%; in assay [6], 93%. Besides, the Activity in assay [7] worked out at 100%; in assay [8], 85%; in [9], 90%; in [10] it was 79%; in assay [11], 95%.
